pIC50: −log10 of the molar value.
Experiments:
[1] = Selectivity index, ratio of IC50 for human serum BChE to IC50 for rat cortex AchE
Acetylcholinesterase [2] = target: T1, Acetylcholinesterase (Rattus norvegicus, UniProt P37136); assay: Inhibition of rat cortex AchE using acetylthiocholine iodide as substrate by Ellman's method
T1 sequence (P37136 whole entry): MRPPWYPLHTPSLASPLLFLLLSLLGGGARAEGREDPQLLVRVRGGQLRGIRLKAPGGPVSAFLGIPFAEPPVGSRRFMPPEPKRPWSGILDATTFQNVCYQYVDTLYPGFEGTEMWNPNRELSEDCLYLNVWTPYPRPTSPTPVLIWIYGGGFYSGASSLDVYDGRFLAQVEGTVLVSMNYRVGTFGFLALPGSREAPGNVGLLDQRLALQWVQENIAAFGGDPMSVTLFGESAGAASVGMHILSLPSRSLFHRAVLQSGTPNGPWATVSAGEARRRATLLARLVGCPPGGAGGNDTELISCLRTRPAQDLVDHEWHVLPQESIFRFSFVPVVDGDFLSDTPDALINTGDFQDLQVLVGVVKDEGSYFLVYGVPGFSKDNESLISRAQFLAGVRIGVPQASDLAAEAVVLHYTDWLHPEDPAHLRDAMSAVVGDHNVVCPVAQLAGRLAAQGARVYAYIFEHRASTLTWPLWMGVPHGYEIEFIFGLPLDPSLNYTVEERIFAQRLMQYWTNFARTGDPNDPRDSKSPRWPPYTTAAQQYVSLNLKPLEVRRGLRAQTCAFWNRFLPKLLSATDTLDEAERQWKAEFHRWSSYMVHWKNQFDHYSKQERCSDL

Acetylcholinesterase [3] = target: T2, Acetylcholinesterase (Bos taurus, UniProt P23795); assay: Inhibition of bovine erythrocyte AchE using acetylthiocholine as substrate by Ellman's method
T2 sequence (P23795 whole entry): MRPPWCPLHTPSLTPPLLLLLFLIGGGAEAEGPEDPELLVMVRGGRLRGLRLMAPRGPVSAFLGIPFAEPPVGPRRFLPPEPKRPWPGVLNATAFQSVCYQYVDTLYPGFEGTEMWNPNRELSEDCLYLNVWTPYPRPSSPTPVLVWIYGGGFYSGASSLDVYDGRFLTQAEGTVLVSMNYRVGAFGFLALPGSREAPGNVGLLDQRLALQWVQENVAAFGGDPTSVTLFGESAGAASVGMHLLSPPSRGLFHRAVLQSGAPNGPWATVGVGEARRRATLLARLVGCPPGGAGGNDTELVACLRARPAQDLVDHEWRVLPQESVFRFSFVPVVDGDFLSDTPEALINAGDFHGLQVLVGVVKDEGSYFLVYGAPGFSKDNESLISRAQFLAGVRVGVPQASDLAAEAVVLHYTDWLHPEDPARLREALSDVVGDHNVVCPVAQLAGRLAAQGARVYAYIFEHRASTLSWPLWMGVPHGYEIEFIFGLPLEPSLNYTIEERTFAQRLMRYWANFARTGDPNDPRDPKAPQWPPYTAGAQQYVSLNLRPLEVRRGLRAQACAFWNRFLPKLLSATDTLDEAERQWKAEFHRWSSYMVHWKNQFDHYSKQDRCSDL

[4] = target: T3, Acetylcholinesterase (Bos taurus) (UniProt P23795); assay: Displacement of propidium iodide from bovine erythrocyte AchE at 3 uM incubated for 6 hrs followed by addition of propidium iodide and measured after 15 mins by thioflavin T-fluorescence assay
T3 sequence (whole entry): T2 sequence (P23795 whole entry)

[5] = target: T3, Acetylcholinesterase (Bos taurus); assay: Displacement of propidium iodide from bovine erythrocyte AchE at 0.3 uM incubated for 6 hrs followed by addition of propidium iodide and measured after 15 mins by thioflavin T-fluorescence assay
[6] = target: T3, Acetylcholinesterase (Bos taurus); assay: Displacement of propidium iodide from bovine erythrocyte AchE at 1 uM incubated for 6 hrs followed by addition of propidium iodide and measured after 15 mins by thioflavin T-fluorescence assay
Acetylcholinesterase [7] = target: Acetylcholinesterase (Homo sapiens, UniProt P22303); assay: Inhibition of human AchE-induced amyloid beta (1 to 40) aggregation after 48 hrs by thioflavin T fluorescence spectroscopic method
Cholinesterase = Cholinesterase (Homo sapiens, UniProt P06276); assay: Inhibition of BuChE (unknown origin)
Sequence of Cholinesterase (P06276 whole entry): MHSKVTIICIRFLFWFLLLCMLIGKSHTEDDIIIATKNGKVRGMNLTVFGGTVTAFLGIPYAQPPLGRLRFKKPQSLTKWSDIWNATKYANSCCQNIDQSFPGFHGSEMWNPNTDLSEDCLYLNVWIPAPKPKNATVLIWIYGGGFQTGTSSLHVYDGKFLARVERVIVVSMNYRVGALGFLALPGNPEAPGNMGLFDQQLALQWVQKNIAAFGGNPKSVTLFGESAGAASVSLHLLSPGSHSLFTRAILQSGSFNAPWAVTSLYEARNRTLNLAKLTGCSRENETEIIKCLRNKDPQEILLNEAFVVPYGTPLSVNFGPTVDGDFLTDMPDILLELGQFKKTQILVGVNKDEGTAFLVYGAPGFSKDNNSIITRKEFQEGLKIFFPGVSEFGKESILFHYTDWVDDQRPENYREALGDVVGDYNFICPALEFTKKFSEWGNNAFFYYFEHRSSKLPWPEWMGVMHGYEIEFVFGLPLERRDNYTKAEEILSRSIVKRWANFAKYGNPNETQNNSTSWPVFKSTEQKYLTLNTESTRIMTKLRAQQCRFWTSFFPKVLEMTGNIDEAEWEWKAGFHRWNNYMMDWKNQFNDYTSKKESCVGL

Sequence of Acetylcholinesterase (Homo sapiens, UniProt P22303) (P22303 whole entry): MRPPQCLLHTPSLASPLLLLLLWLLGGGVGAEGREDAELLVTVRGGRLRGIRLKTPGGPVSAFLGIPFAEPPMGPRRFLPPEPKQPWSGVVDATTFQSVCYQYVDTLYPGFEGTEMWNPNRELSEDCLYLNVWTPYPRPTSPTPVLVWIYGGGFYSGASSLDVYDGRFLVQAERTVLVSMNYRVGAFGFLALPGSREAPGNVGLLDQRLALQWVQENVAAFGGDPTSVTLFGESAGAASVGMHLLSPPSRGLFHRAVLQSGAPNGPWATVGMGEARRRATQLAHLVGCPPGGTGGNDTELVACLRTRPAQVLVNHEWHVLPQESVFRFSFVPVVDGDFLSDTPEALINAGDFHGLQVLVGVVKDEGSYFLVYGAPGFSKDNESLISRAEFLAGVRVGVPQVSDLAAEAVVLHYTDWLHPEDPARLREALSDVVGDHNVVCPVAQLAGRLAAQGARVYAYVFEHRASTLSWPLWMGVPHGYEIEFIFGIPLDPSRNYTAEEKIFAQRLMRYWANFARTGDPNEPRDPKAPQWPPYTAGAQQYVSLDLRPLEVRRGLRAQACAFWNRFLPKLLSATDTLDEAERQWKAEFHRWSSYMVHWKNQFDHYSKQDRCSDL

For `c1ccc2c(NCCCCCCCCNc3c4c(nc5c3CCCC5)CCCC4)c3c(nc2c1)CCCC3`, the Ratio IC50 [1] was 221 and the pIC50 (Acetylcholinesterase [2]) was 9.70.
For `Clc1ccc2c(NCCCCCCCCNc3c4c(nc5ccccc35)CCCC4)c3c(nc2c1)CCCC3`, the Ratio IC50 [1] was 371 and the pIC50 (Acetylcholinesterase [2]) was 10.15.
With `O=C(CCCCCNc1c2c(nc3ccccc13)CCCC2)NCCc1c[nH]c2ccccc12` the pIC50 (Acetylcholinesterase [3]) was 9.00, the inhibition [4] was 35% and the inhibition [5] was 42%. It also gave an inhibition [6] of 34%.
With `O=C(CCCC1CCSS1)NCCCNc1c2c(nc3cc(Cl)ccc13)CCCC2` (stereo not given) the pIC50 (Acetylcholinesterase [7]) was 6.60.
With `Cc1c(C)c2c(c(C)c1O)CCC(C)(C(=O)NCCCCCCCCNc1c3c(nc4cc(Cl)ccc14)CCCC3)O2` (stereo not given) the pIC50 (Cholinesterase) was 7.27.
Work on `O=C(CCCCCCNc1c2c(nc3cc(Cl)ccc13)CCCC2)NCCc1c[nH]c2ccccc12` yielded an inhibition [4] of 35%, an inhibition [5] of 42% and an inhibition [6] of 34%.
In the case of `Clc1ccc2c(NCCCCCCCCCNc3c4c(nc5c3CCCC5)CCCC4)c3c(nc2c1)CCCC3`, the Ratio IC50 [1] was 647 and the pIC50 (Acetylcholinesterase [2]) was 9.52.

Source: ChEMBL document CHEMBL4004782, “A review on tacrine-based scaffolds as multi-target drugs (MTDLs) for Alzheimer's disease” (Eur J Med Chem, 2017)
